According to patent US20240067651A1 (Biohaven Therapeutics Ltd., priority 2019, published 2024):

Experiments:
[1] = Stability in Simulated Gastric Fluid (SGF); format: in vitro ADME; parameters: key: % parent compound remaining relative to 0-minute sample
Method in brief: (§1)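 Percent of parent remaining relative to time zero was measured by LC-MS/MS over 0–60 min at 37 °C, 150 rpm. Test compound was 2 μg/mL final in pepsin-containing SGF, pH 1.2, or pancreatin-containing SIF, pH 6.8. Degradation half-life was derived from the log-linear decay where enough points allowed.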

Caco-2 monolayer = assay: Caco-2 Permeability Assay; format: in vitro ADME, human; settings: Caco-2 monolayer
Method in brief: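 Bidirectional transport at 37 °C for 90 min, 10 μM donor concentration, with or without Pgp inhibitor, across 21-day Caco-2 monolayers with TEER >600 […] in HEPES-buffered HBSS, pH 7.4. LC-MS/MS of donor and receiver samples gives Papp, B→A/A→B efflux ratio and mass recovery.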

[2] = Stability in Simulated Intestinal Fluid (SIF); format: in vitro ADME; parameters: key: % parent compound remaining relative to 0-minute sample
Method in brief: as §1

Plasma Stability = format: in vitro ADME, human
Method in brief: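 Parent compound quantified by LC-MS/MS after acetonitrile precipitation, reported as percent of control remaining (triplicate). Incubation: 1 hour, 37° C, fresh human plasma, compound at 1 μM.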

[3] = simulated gastric fluid, remaining at 1 h
[4] = simulated intestinal fluid, remaining at 1 h
[5] = % remaining after 1 h in simulated gastric fluid
[6] = % remaining after 1 h in simulated intestinal fluid
[7] = % remaining after 1 h in human plasma
[8] = % remaining at 1 h in human plasma, the 15th table
[9] = bare number, unit or time not given, the 15th table Examples 204-207

Row | Compound | SGF [1, 3] [% remaining] | Caco-2 Papp (Caco-2 monolayer) [×10⁻⁶ cm/s] | SIF [2, 4] [% remaining] | human Plasma stability (Plasma Stability; human plasma, remaining at 1 h) [% remaining] | further results
1 | CC(C)C[C@@H](NC(=O)OC(C)(C)C)C(=O)OCCCCC(=O)OCn1c(=O)c2c(ccn2COC(=O)CCCCOC(=O)[C@@H](CC(C)C)NC(=O)OC(C)(C)C)n(CCOC(C)C)c1=S [Example 349, 5-[(3-{[(5-{[(2R)-2-{[(tert-butoxy)carbonyl]amino}-4-methylpentanoyl]oxy}penta-noyl)oxy]methyl}-4-oxo-1-[2-(propan-2-yloxy)ethyl]-2-sulfanylidene-1H,2H,3H,4H,5H-pyrrolo[3,2-d]pyrimidin-5-yl)methoxy]-5-oxopentyl (2R)-2-{[(tert-butoxy)carbonyl]amino}-4-methylpentanoate] | 99 | 4.99 | 8 | 6 | –
2 | CC(C)OCCn1c(=S)n(COC(=O)OCCOCCOC(N)=O)c(=O)c2[nH]ccc21 [Example 403, 3-{[{{2-[2-(carbamoyloxy)ethoxy]ethoxy}car-bonyl)oxy]methyl}-1-[2-(propan-2-yloxy)ethyl]-2-sulfanylidene-1H,2H,3H,4H,5H-pyrrolo[3,2-d]pyrimidin-4-one] | – | 0.477 | – | – | SGF [1, 5]: 98% remaining; SIF [2, 6]: 54% remaining; human Plasma stability (Plasma Stability; [7]): 0% remaining
3 | CC(C)OCCn1c(=S)[nH]c(=O)c2c1ccn2CO [Example 197] | – | – | – | – | SGF ([1]; % remaining at 1 h in simulated gastric fluid, the 15th table): 98% remaining; Caco-2 Papp (nm/s) (Caco-2 monolayer; the 15th table): unstable; SIF ([2]; % remaining at 1 h in simulated intestinal fluid, the 15th table): 55% remaining; human Plasma stability (Plasma Stability; [8]): 86% remaining
4 | trifluoroacetic acid {4-oxo-1-[2-(propan-2-yloxy)ethyl]-2-sulfanylidene-1H,2H,3H,4H,5H-pyrrolo[3,2-d]pyrimidin-5-yl}methyl N-[2-(2-aminoethoxy)ethyl]carbamate [Example 373] | 90 | 0.123 | 72 | 68 | –
5 | tert-butyl 3-(2-{[{{4-oxo-1-[2-(propan-2-yloxy)ethyl]-2-sulfanylidene-1H,2H,3H,4H,5H-pyrrolo[3,2-d]pyrimidin-5-yl}methoxy)carbonyl]oxy}eth-oxy)propanoate [Example 392] | 95 | 0.12 | 71 | 1 | –
6 | CC(C)OCCn1c(SCOC(=O)CCCOC(=O)[C@H](NC(=O)OC(C)(C)C)C(C)C)nc(=O)c2c1ccn2COC(=O)CCCOC(=O)[C@H](NC(=O)OC(C)(C)C)C(C)C [Example 357, 4-{[2-({[(4-{[(2R)-2-{[(tert-butoxy)carbonyl]amino}-3-methylbutanoyl]oxy}buta-noyl)oxy]methyl}sulfanyl)-4-oxo-1-[2-(propan-2-yloxy)ethyl]-1H,4H,5H-pyrrolo[3,2-d]pyrimidin-5-yl]methoxy}-4-oxobutyl (2R)-2-{[(tert-butoxy)carbonyl]amino}-3-methylbutanoate] | 98 | 1.5 | 14 | 5 | –
7 | CCCCCCCCOC(=O)OCSc1nc(=O)c2c(ccn2COC(=O)OCCCCCCCC)n1CCOC(C)C [Example 207, octyl {2-[{{[(octyloxy)carbon-yl]oxy}methyl)sulfanyl]-4-oxo-1-[2-(propan-2-yloxy)ethyl]-1H,4H,5H-pyrrolo[3,2-d]pyrimidin-5-yl} methyl carbonate] | – | – | – | – | SGF [1, 9]: 90; Caco-2 Papp (Caco-2 monolayer; the 15th table): 0.267 ×10⁻⁶ cm/s; SIF [2, 9]: 29; human Plasma stability (Plasma Stability; [8]): 92% remaining
8 | {4-oxo-1-[2-(propan-2-yloxy)ethyl]-2-sulfanylidene-1H,2H,3H,4H,5H-pyrrolo[3,2-d]pyrimidin-5-yl}methyl 2-{[(tert-butoxy)carbonyl](methyl)amino}acetate [Example 395] | – | 14.4 | – | – | SGF [1, 5]: 97% remaining; SIF [2, 6]: 23% remaining; human Plasma stability (Plasma Stability; [7]): 1% remaining
9 | (2R)-2-{[(tert-butoxy)carbonyl]amino}-N-[2-(2-{[{{4-oxo-1-[2-(propan-2-yloxy)ethyl]-2-sulfanylidene-1H,2H,3H,4H,5H-pyrrolo[3,2-d]pyrimidin-5-yl}methoxy)carbonyl]oxy}ethoxy)eth-yl]-3-phenylpropanamide [Example 387] | 92 | 4.5 | 75 | 1 | –
10 | 17-[2-(propan-2-yloxy)ethyl]-16-sulfanylidene-3,5,8,11,13-pentaoxa-1,15,17-triazatricyclo[13.5.2.0^{18,21}]docosa-18(21),19-diene-4,12,22-trione [Example 404] | – | 5.08 | – | – | SGF [1, 5]: 92% remaining; SIF [2, 6]: 86% remaining; human Plasma stability (Plasma Stability; [7]): 77% remaining
11 | CC(C)OCCn1c(=S)n(COC(=O)CCCOC(=O)[C@H](NC(=O)OC(C)(C)C)C(C)C)c(=O)c2c1ccn2COC(=O)CCCOC(=O)[C@H](NC(=O)OC(C)(C)C)C(C)C [Example 359, (((1-(2-isopropoxyethyl)-4-oxo-2-thioxo-1,4-dihydro-3H-pyrrolo[3,2-d]pyrimidine-3,5(2H)-diyl)bis(methylene))bis(oxy))bis(4-oxobutane-4,1-diyl) (2R,2′R)-bis(2-((tert-butoxycarbonyl)amino)-3-methylbutanoate)] | 99 | <0.297 | 41 | 8 | –
